Holding throughout (assay): relative viability (nuclei count vs DMSO), 5 days (fraction); higher = more cells survive
Compound in the assay “Fedratinib + Phenformin”: Cc1cnc(Nc2ccc(OCCN3CCCC3)cc2)nc1Nc1cccc(S(=O)(=O)NC(C)(C)C)c1 [Fedratinib] + N=C(N)NC(=N)NCCc1ccccc1 [Phenformin] (partner 250 µM)
A digest of the protocol:
(§1)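 Nuclei were stained with Hoechst during a one-step fixation (final 0.05% Triton X-100, 1% formaldehyde, 1 ug/ml Hoechst) carried out 5 days after dosing, then counted on 4× images. The cells, lung cancer lines in 1536-well plates, had been dosed by pin tool the day after seeding with one drug alone or a fixed anchor-drug dose plus five library-drug doses (not always all listed) in √10 steps. Relative viability is the nuclei count in treated wells divided by that in vehicle wells, and each value is the median of duplicate plates.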

Compound in the assay “GW-2580 + Tozasertib”: COC1=CC=C(C=C1)COC2=C(C=C(C=C2)CC3=CN=C(N=C3N)N)OC [GW-2580] + Cc1cc(Nc2cc(N3CCN(C)CC3)nc(Sc3ccc(NC(=O)C4CC4)cc3)n2)n[nH]1 [Tozasertib] (partner 0.1 µM)
A digest of the protocol:
as §1

Compound in the assay “Fedratinib + Palbociclib”: Cc1cnc(Nc2ccc(OCCN3CCCC3)cc2)nc1Nc1cccc(S(=O)(=O)NC(C)(C)C)c1 [Fedratinib] + CC(=O)c1c(C)c2cnc(Nc3ccc(N4CCNCC4)cn3)nc2n(C2CCCC2)c1=O [Palbociclib] (partner 0.5 µM)
Summed up:
as §1

Compound in the assay “Fedratinib + Alpelisib”: Cc1cnc(Nc2ccc(OCCN3CCCC3)cc2)nc1Nc1cccc(S(=O)(=O)NC(C)(C)C)c1 [Fedratinib] + Cc1nc(NC(=O)N2CCC[C@H]2C(N)=O)sc1-c1ccnc(C(C)(C)C(F)(F)F)c1 [Alpelisib] (partner 2 µM)
Summed up:
as §1

Compound in the assay “GW-2580 + Lapatinib”: COC1=CC=C(C=C1)COC2=C(C=C(C=C2)CC3=CN=C(N=C3N)N)OC [GW-2580] + CS(=O)(=O)CCNCc1ccc(-c2ccc3ncnc(Nc4ccc(OCc5cccc(F)c5)c(Cl)c4)c3c2)o1 [Lapatinib] (partner 2 µM)
A digest of the protocol:
as §1

Compound in the assay “Fedratinib + Luminespib”: Cc1cnc(Nc2ccc(OCCN3CCCC3)cc2)nc1Nc1cccc(S(=O)(=O)NC(C)(C)C)c1 [Fedratinib] + CCNC(=O)c1noc(-c2cc(C(C)C)c(O)cc2O)c1-c1ccc(CN2CCOCC2)cc1 [Luminespib] (partner 0.01 µM)
A digest of the protocol: as §1

For NCI-H2126, the relative viability was 0.532 with Fedratinib + Phenformin (first compound 0.1 µM); 0.569 in the assay with Fedratinib + Phenformin (first compound 0.3162 µM); 0.498 with Fedratinib + Phenformin (first compound 1 µM); 0.889 with GW-2580 + Tozasertib (first compound 0.08 µM); 0.933 in the assay with GW-2580 + Tozasertib (first compound 0.8 µM); 0.822 in the assay with GW-2580 + Tozasertib (first compound 2.53 µM). For the same cell line, the relative viability stood at 0.794 with GW-2580 + Tozasertib (first compound 8 µM); 0.319 with Fedratinib + Palbociclib (first compound 0.1 µM); 0.339 with Fedratinib + Palbociclib (first compound 0.3162 µM); 0.369 with Fedratinib + Palbociclib (first compound 1 µM); 0.745 with Fedratinib + Alpelisib (first compound 0.1 µM); 0.719 with Fedratinib + Alpelisib (first compound 0.3162 µM). Further, the relative viability with Fedratinib + Alpelisib (first compound 1 µM) was determined as 0.786; with GW-2580 + Lapatinib (first compound 0.08 µM) it was 0.767; in the assay with GW-2580 + Lapatinib (first compound 0.8 µM), 0.835; with GW-2580 + Lapatinib (first compound 2.53 µM), 0.679; with GW-2580 + Lapatinib (first compound 8 µM) it was 0.833; with Fedratinib + Luminespib (first compound 0.1 µM), 0.929. Further, the figures for the relative viability in the assay with Fedratinib + Luminespib (first compound 0.3162 µM) and with Fedratinib + Luminespib (first compound 1 µM) were 0.962 and 0.834, respectively.
NCI-H3122: the relative viability is 0.292 in the assay with Fedratinib + Phenformin (first compound 0.1 µM); 0.407 with Fedratinib + Phenformin (first compound 0.3162 µM); 0.339 in the assay with Fedratinib + Phenformin (first compound 1 µM); 0.549 in the assay with GW-2580 + Tozasertib (first compound 0.08 µM); 0.421 with GW-2580 + Tozasertib (first compound 0.8 µM); 0.468 with GW-2580 + Tozasertib (first compound 2.53 µM). Moreover, the relative viability in the assay with GW-2580 + Tozasertib (first compound 8 µM) is 0.362; with Fedratinib + Palbociclib (first compound 0.1 µM), 0.199; with Fedratinib + Palbociclib (first compound 0.3162 µM) it was 0.184; with Fedratinib + Palbociclib (first compound 1 µM), 0.159; in the assay with Fedratinib + Alpelisib (first compound 0.1 µM), 0.833; with Fedratinib + Alpelisib (first compound 0.3162 µM) it was 0.682. Further, the relative viability was 0.7 with Fedratinib + Alpelisib (first compound 1 µM); 1.01 with GW-2580 + Lapatinib (first compound 0.08 µM); 1.02 in the assay with GW-2580 + Lapatinib (first compound 0.8 µM); 0.999 with GW-2580 + Lapatinib (first compound 2.53 µM); 1.04 with GW-2580 + Lapatinib (first compound 8 µM); 0.0769 with Fedratinib + Luminespib (first compound 0.1 µM). Further, the relative viability in the assay with Fedratinib + Luminespib (first compound 0.3162 µM) is 0.0986; with Fedratinib + Luminespib (first compound 1 µM) it was 0.088.
In the case of NCI-H1975, the relative viability with Fedratinib + Phenformin (first compound 0.1 µM) worked out at 0.416; with Fedratinib + Phenformin (first compound 0.3162 µM), 0.407; with Fedratinib + Phenformin (first compound 1 µM) it was 0.37; with GW-2580 + Tozasertib (first compound 0.08 µM), 0.854; with GW-2580 + Tozasertib (first compound 0.8 µM) it was 1.06; with GW-2580 + Tozasertib (first compound 2.53 µM), 0.614. Besides, the relative viability with GW-2580 + Tozasertib (first compound 8 µM) turned out to be 0.654; with Fedratinib + Palbociclib (first compound 0.1 µM), 0.644; with Fedratinib + Palbociclib (first compound 0.3162 µM), 0.304; in the assay with Fedratinib + Palbociclib (first compound 1 µM), 0.413; in the assay with Fedratinib + Alpelisib (first compound 0.1 µM), 0.613; with Fedratinib + Alpelisib (first compound 0.3162 µM), 0.692. Moreover, the relative viability was 0.467 in the assay with Fedratinib + Alpelisib (first compound 1 µM); 0.925 with GW-2580 + Lapatinib (first compound 0.08 µM); 1.09 in the assay with GW-2580 + Lapatinib (first compound 0.8 µM); 0.885 in the assay with GW-2580 + Lapatinib (first compound 2.53 µM); 0.834 with GW-2580 + Lapatinib (first compound 8 µM); 0.235 in the assay with Fedratinib + Luminespib (first compound 0.1 µM). The relative viability with Fedratinib + Luminespib (first compound 0.3162 µM) is 0.266; with Fedratinib + Luminespib (first compound 1 µM), 0.178.
Turning to NCI-H1944, the relative viability with Fedratinib + Phenformin (first compound 0.1 µM) was 0.194; with Fedratinib + Phenformin (first compound 0.3162 µM) it was 0.228; with Fedratinib + Phenformin (first compound 1 µM), 0.213; with GW-2580 + Tozasertib (first compound 0.08 µM), 0.267; with GW-2580 + Tozasertib (first compound 0.8 µM), 0.256; with GW-2580 + Tozasertib (first compound 2.53 µM), 0.253. Further, the relative viability in the assay with GW-2580 + Tozasertib (first compound 8 µM) was 0.205; in the assay with Fedratinib + Palbociclib (first compound 0.1 µM), 0.305; with Fedratinib + Palbociclib (first compound 0.3162 µM) it was 0.358; with Fedratinib + Palbociclib (first compound 1 µM), 0.318; in the assay with Fedratinib + Alpelisib (first compound 0.1 µM), 0.804; in the assay with Fedratinib + Alpelisib (first compound 0.3162 µM), 0.945. Moreover, the relative viability with Fedratinib + Alpelisib (first compound 1 µM) came to 0.716; with GW-2580 + Lapatinib (first compound 0.08 µM) it was 0.843; with GW-2580 + Lapatinib (first compound 0.8 µM), 0.98; in the assay with GW-2580 + Lapatinib (first compound 2.53 µM), 0.82; in the assay with GW-2580 + Lapatinib (first compound 8 µM), 0.897; with Fedratinib + Luminespib (first compound 0.1 µM) it was 0.741. The relative viability with Fedratinib + Luminespib (first compound 0.3162 µM) amounted to 0.801; in the assay with Fedratinib + Luminespib (first compound 1 µM) it was 0.763.
Take LU99A: the relative viability with Fedratinib + Phenformin (first compound 0.1 µM) was determined as 0.864; with Fedratinib + Phenformin (first compound 0.3162 µM) it was 0.894; with Fedratinib + Phenformin (first compound 1 µM), 0.755; in the assay with GW-2580 + Tozasertib (first compound 0.08 µM), 0.27; in the assay with GW-2580 + Tozasertib (first compound 0.8 µM), 0.294; with GW-2580 + Tozasertib (first compound 2.53 µM), 0.23. The relative viability with GW-2580 + Tozasertib (first compound 8 µM) is 0.235; in the assay with Fedratinib + Palbociclib (first compound 0.1 µM) it was 0.469; with Fedratinib + Palbociclib (first compound 0.3162 µM) it was 0.382; in the assay with Fedratinib + Palbociclib (first compound 1 µM), 0.392; with Fedratinib + Alpelisib (first compound 0.1 µM), 0.55; in the assay with Fedratinib + Alpelisib (first compound 0.3162 µM), 0.518. Further, the relative viability worked out at 0.387 in the assay with Fedratinib + Alpelisib (first compound 1 µM); 1.07 with GW-2580 + Lapatinib (first compound 0.08 µM); 1.14 in the assay with GW-2580 + Lapatinib (first compound 0.8 µM); 0.698 in the assay with GW-2580 + Lapatinib (first compound 2.53 µM); 1.01 with GW-2580 + Lapatinib (first compound 8 µM); 0.271 in the assay with Fedratinib + Luminespib (first compound 0.1 µM). For the same cell line, the relative viability in the assay with Fedratinib + Luminespib (first compound 0.3162 µM) worked out at 0.302; in the assay with Fedratinib + Luminespib (first compound 1 µM), 0.216.
In the case of SW 1573, the relative viability is 0.32 with Fedratinib + Phenformin (first compound 0.1 µM); 0.391 with Fedratinib + Phenformin (first compound 0.3162 µM); 0.369 in the assay with Fedratinib + Phenformin (first compound 1 µM); 0.183 in the assay with GW-2580 + Tozasertib (first compound 0.08 µM); 0.2 with GW-2580 + Tozasertib (first compound 0.8 µM); 0.219 with GW-2580 + Tozasertib (first compound 2.53 µM). The relative viability with GW-2580 + Tozasertib (first compound 8 µM) stood at 0.24; with Fedratinib + Palbociclib (first compound 0.1 µM), 0.41; in the assay with Fedratinib + Palbociclib (first compound 0.3162 µM), 0.373; with Fedratinib + Palbociclib (first compound 1 µM), 0.302; with Fedratinib + Alpelisib (first compound 0.1 µM), 0.813; with Fedratinib + Alpelisib (first compound 0.3162 µM), 0.867. Besides, the relative viability was determined as 0.703 with Fedratinib + Alpelisib (first compound 1 µM); 0.979 in the assay with GW-2580 + Lapatinib (first compound 0.08 µM); 1.11 with GW-2580 + Lapatinib (first compound 0.8 µM); 1.18 in the assay with GW-2580 + Lapatinib (first compound 2.53 µM); 0.856 in the assay with GW-2580 + Lapatinib (first compound 8 µM); 0.548 in the assay with Fedratinib + Luminespib (first compound 0.1 µM). The relative viability is 0.26 in the assay with Fedratinib + Luminespib (first compound 0.3162 µM) and 0.145 with Fedratinib + Luminespib (first compound 1 µM).
For HCC-78, the relative viability came out at 0.698 with Fedratinib + Phenformin (first compound 0.1 µM); 0.703 with Fedratinib + Phenformin (first compound 0.3162 µM); 0.572 with Fedratinib + Phenformin (first compound 1 µM); 0.253 in the assay with GW-2580 + Tozasertib (first compound 0.08 µM); 0.357 in the assay with GW-2580 + Tozasertib (first compound 0.8 µM); 0.401 in the assay with GW-2580 + Tozasertib (first compound 2.53 µM). In addition, the relative viability came out at 0.314 with GW-2580 + Tozasertib (first compound 8 µM); 0.47 with Fedratinib + Palbociclib (first compound 0.1 µM); 0.443 with Fedratinib + Palbociclib (first compound 0.3162 µM); 0.476 with Fedratinib + Palbociclib (first compound 1 µM); 0.324 in the assay with Fedratinib + Alpelisib (first compound 0.1 µM); 0.34 with Fedratinib + Alpelisib (first compound 1 µM). Moreover, the relative viability with GW-2580 + Lapatinib (first compound 0.08 µM) was found to be 0.917; in the assay with GW-2580 + Lapatinib (first compound 0.8 µM) it was 1.37; with GW-2580 + Lapatinib (first compound 2.53 µM), 0.439; in the assay with GW-2580 + Lapatinib (first compound 8 µM), 0.752.
As to NCI-H1299, the relative viability stood at 1.08 with Fedratinib + Alpelisib (first compound 0.1 µM); 1.07 with Fedratinib + Alpelisib (first compound 0.3162 µM); 1.05 with Fedratinib + Alpelisib (first compound 1 µM); 1.04 with GW-2580 + Lapatinib (first compound 0.08 µM); 0.979 with GW-2580 + Lapatinib (first compound 0.8 µM); 0.959 with GW-2580 + Lapatinib (first compound 2.53 µM). Moreover, in the assay with GW-2580 + Lapatinib (first compound 8 µM), the relative viability was determined as 0.886.

Values taken from the supplement of paper PMC10307832.
